Data: US8748369B2, “Use of targeted nitroxide agents in bone healing” (University of Pittsburgh-Of the Commonwealth System of …, priority 2009, dated 2014)
Several values for one entry are separate records, joined by “and”; a condition that tells them apart may be missing. Equal values may be shown once. Where a SMILES comes first, the peptide text is derived from it. [ ]: non-standard residue; d: D form. The star is where a group is joined. NH(TEMPO-4-yl) = CC1(C)CC(N*)CC(C)(C)N1[O]; Orn = NCCC[C@H](N)C(=O)O; Cbz = O=C(OCc1ccccc1)*; Boc = CC(C)(C)OC(=O)*

Tests used:
[1] = test system: KM101 human marrow stromal cells; test: Irradiation survival curves of KM101 cells; type: cell-based
Procedure: KM101 cells were incubated in media alone or in JP4-039 (10 μM) for one hour before irradiation or 24 hours after irradiation. The cells were irradiated to doses ranging from 0 to 6 Gy and plated in 4 well plates. Seven days later the cells were stained with crystal violet and colonies of greater than 50 cells counted. Cells incubated in JP4-039 either before or after irradiation were more radioresistant as shown by an increased shoulder of n=2.3±0.2 or 2.2±0.2, respectively compared to n of 1.1±0.1for the KM101 cells (p=0.0309 or 0.0386, respectively).

[2] = test system: C57BL/6NHsd mice, tibial bone wounds; test: Unicortical tibial bone wound healing with or without 20 Gy limb irradiation; type: in vivo, mouse
[3] = Solubility in water; type: physicochemical
Excerpt: All compositions are sterile filtered (e.g.) using a 0.2 micron filter (non sterile). • A. 0.1% DMSO 99.9% and RMPI 1640. Comments: with the low water solubility of JP4-039, DMSO is used in vitro experiments since it is a universal solvent which has been used in radiation biology experiments without any toxic effects. • B. 10% CrEL(Cremophor EL), 10% ethanol and 80% DI water. […] This formula dissolves the JP4-039. • C. Suspension of JP4-039 in F14 emulsion: Comments: F14 is a mixture of sesame oil, egg-phosphatidyl choline, Tween 80, and Span85 at ratios of 1:0.5:0.25:0.25 w/w, respectively. […] Comments: Sesame Seed Oil (100 mg/ml), Soy Phosphatidyl […] (50 mg/ml), JP4-039 (2 mg/ml), and Phosphate Buffered Saline. • Low dose (JP4-039): 5 mg/kg, 0.5 mg/ml. • Medium dose (JP4-039): 10 mg.kg, 1.0 mg/ml. • High dose (JP4-039): 20 mg/kg, 2.0 mg/ml. • Placebo/Vehicle (JP4-039): 0 mg/kg, 0 ing/ml • Exemplary dose (mouse): 200 μl of volume • E. JP4-039 dissolved in a solution of 45% 2-hydroxypropyl-β-cyclodextrin and 55% water. Comments: Cyclodextrins have a hydrophobic interior which compounds such as JP4-039 can complex in a rapid and reversible reaction. P-cyclodextrins have a cavity with an inner diameter of approximately 7.5 Å which is well suited for JP4-039.

[4] = test system: NOD/SCID mice; test: Proposed: human marrow stromal cell seeding into irradiated limbs of NOD/SCID mice; type: in vivo, mouse; settings: MnSOD-PL prior to cell infusion; JP4-039 daily after cell transplantation
Excerpt: The following can be used to select and optimize the best GS-nitroxide JP4-039 (radiation damage mitigator drug) that can enhance human bone marrow stromal cell and fresh human stromal cell line seeding efficiency into irradiated limbs of NOD/SCID mice. MnSOD-overexpressing cells are a positive control.
A. Experiments with KM101-MnSOD/ds-red (control KM101-ds-red) clonal cell lines. Groups of 12 NOD/SCID mice receive 300 cGy total body irradiation (low dose leg) and a 1000 cGy boost to the left hind leg (high dose leg), then 24 hours later intravenous injection of 1×10^5 or 1×10^6 cells of each cell line (groups 1 and 2). Group 3 is mice that receive MnSOD-PL intravenously 24 hours prior to irradiation and then injection of KM101-MnSOD/ds-red. […] This experiment may be conducted essentially as described above (A), with all groups, but with a sub-group receiving JP4-039 (24 hours) after radiation (same day as cell lines are injected, or a sub-group receiving intraperitoneal JP4-039 (daily or weekly after cell line transplantation). Cells may be explanted from the high dose and low dose irradiated femurs at days 7, 14, 21, and cultured in vitro for human stromal colony forming progenitor cells (CFU-F). The percent and total number of human cells entering the high dose and low dose irradiated limbs can be quantitated by cell sorting for ds-red. […]

[5] = test system: mouse embryonic cells (MEC); test: ActD-induced apoptosis in MECs (PS externalization, caspase-3, DNA fragmentation); type: cell-based
Excerpt: Cells that annexin V-positive and PI-negative were considered apoptotic.

[6] = test system: 32D cl 3 murine hematopoietic cells; test: Irradiation survival curves of 32D cl 3 cells; type: cell-based, mouse; settings: cells incubated in compound
Procedure: FIG. 16 illustrates the effect of GS conjugated nitroxide, XJB-5-125, on gamma-irradiation dose survival curves of 32D cl 3 murine hematopoietic cells.
Irradiation survival curves were performed on cells from the 32D cl 3 mouse hematopoietic progenitor cell line, incubated in 10 μM JP4-039 for 1 hour before irradiation, or plated in methycellulose containing 10 μM JP4-030 after irradiation. Cells were irradiated from 0 to 8 Gy, plated in 0.8% methycellulose containing media, and incubated for 7 days at 37° C. Colonies of greater than 50 cells were counted and data analyzed by linear quadratic and single-hit, multi-target models.

Row | Compound | n (shoulder on the survival curve) ([1]; 10 μM 24 hours after irradiation) | change in Do ([1]; 10 μM before or after irradiation) | n (shoulder on the survival curve) ([1]; 10 μM one hour before irradiation) | bone wound healing in the absence of RT ([2]; 0 Gy) | Hole Diameter, mean ± SEM ([2]; 0 Gy, Day 7 post-drilling) | Hole Diameter, mean ± SEM ([2]; 0 Gy, Day 14 post-drilling) | Hole Diameter, mean ± SEM ([2]; 0 Gy, Day 21 post-drilling) | Hole Diameter, mean ± SEM ([2]; 0 Gy, Day 28 post-drilling) | Hole Diameter, mean ± SEM ([2]; 20 Gy, Day 7 post-drilling) | Hole Diameter, mean ± SEM ([2]; 20 Gy, Day 14 post-drilling) | Hole Diameter, mean ± SEM ([2]; 20 Gy, Day 21 post-drilling) | Hole Diameter, mean ± SEM ([2]; 20 Gy, Day 28 post-drilling) | RT-induced delay in osseus wound healing ([2]; given prior to 20 Gy RT) | histology: bone fill of wounds versus irradiated mice ([2]; pre-treated prior to irradiation) | solubility in water [3] | engraftment of KM101 stromal cell lines [4] | concentration range of activity in cells (dose-dependent attenuation of ActD-induced PS externalization) [5] | Do of gamma-irradiation survival curve [6] | n (shoulder on the survival curve) [6]
1 | CC(C)C[C@@H](/C=C/CC(=O)NC1CC(C)(C)N([O])C(C)(C)C1)NC(=O)OC(C)(C)C [JP4-039, (S,E)-5-(tert-Butoxycarbonylamino)-7-methyloct-3-enoic acid-TEMPO] | 2.2±0.2 | no significant change | 2.3±0.2 | conferred more rapid healing | 1.02 ± 0.07 mm | 0.6±0.05 mm and 0.55±0.03 mm | 0.47 ± 0.04 mm | 0.23 ± 0.04 mm | 1.14 ± 0.04 mm | 0.92 ± 0.08 mm | 0.5±0.05 mm and 0.51±0.05 mm | 0.4±0.04 mm and 0.37±0.04 mm | ameliorated this RT-induced delay | more bone fill | low solubility in water | facilitate improved stability of engraftment | – | – | –
2 | CC(C)C[C@H](NC(=O)OC(C)(C)C)C(=O)N[C@H](Cc1ccccc1)C(=O)N1CCC[C@H]1C(=O)N[C@H](C(=O)N[C@@H](CCCNC(=O)OCc1ccccc1)C(=O)NC1CC(C)(C)N([O])C(C)(C)C1)C(C)C [XJB-5-125] (Boc-L[dF]PV[Orn](Cbz)-{NH(TEMPO-4-yl)}) | – | – | – | – | – | – | – | – | – | – | – | – | – | – | – | – | 2.5 to 20 µM | 1.138 Gy | 18.24
